Laboratory results reported in patent US11766434B2, “Pyrimidinone derivatives as CDC7 inhibitors” (Cancer Research Technology Limited, priority 2016, dated 2023).

How the values were obtained:
Cdc7/ASK = Cdc7/ASK (Homo sapiens, UniProt O00311); assay: Cdc7 biochemical assay Method 1: 384 well ELISA, MCM2 whole protein substrate, Phospho MCM2 (S53) antibody; set-up: purchased; details: ATP 2 μM, 90 minutes, read-out: Biochemical method 1 (pIC50) (converted)
Method in brief: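 Commercial Cdc7/ASK phosphorylates plate-bound MCM2 with 2 μM ATP in Tris pH 8.5/MgCl2/DTT, 4% DMSO, 90 min at room temperature. Phospho-MCM2 (S53) detected by antibody ELISA with AP/PNPP absorbance. Inhibition normalised to DMSO and no-enzyme controls; IC50 from curve fit.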

Cdc7/Dbf4 = Cdc7/Dbf4 (Homo sapiens, UniProt O00311); assay: Cdc7 biochemical assay Method 2: Cdc7/Dbf4 Enzyme TR-FRET Assay measuring pS40MCM2; details: pS40 MCM2 peptide, 1 μM ATP, 25° C., 120 minutes, read-out: Biochemical Method 2 (pIC50) (converted)
Procedure: This protocol describes a method for assaying a compounds' ability to inhibit Cdc7 activity by measuring pS40MCM2 levels in a Cdc7/Dbf4 Enzyme TR-FRET Assay.
2.5 nM Cdc7/Dbf4 was incubated with 100 nM of biotin-labelled peptide 35-TDALTS(pS)PGRDLP in the presence of 1 μM ATP at 25° C. for 120 minutes. The phosphorylation of the peptide was detected using TR-FRET. Anti-Mcm2 (pS40) antibody, Terbium anti-rabbit secondary antibody and Streptavidin-Alexa Fluor488 form the detection system.

Sequence of Cdc7/Dbf4 (O00311 whole entry): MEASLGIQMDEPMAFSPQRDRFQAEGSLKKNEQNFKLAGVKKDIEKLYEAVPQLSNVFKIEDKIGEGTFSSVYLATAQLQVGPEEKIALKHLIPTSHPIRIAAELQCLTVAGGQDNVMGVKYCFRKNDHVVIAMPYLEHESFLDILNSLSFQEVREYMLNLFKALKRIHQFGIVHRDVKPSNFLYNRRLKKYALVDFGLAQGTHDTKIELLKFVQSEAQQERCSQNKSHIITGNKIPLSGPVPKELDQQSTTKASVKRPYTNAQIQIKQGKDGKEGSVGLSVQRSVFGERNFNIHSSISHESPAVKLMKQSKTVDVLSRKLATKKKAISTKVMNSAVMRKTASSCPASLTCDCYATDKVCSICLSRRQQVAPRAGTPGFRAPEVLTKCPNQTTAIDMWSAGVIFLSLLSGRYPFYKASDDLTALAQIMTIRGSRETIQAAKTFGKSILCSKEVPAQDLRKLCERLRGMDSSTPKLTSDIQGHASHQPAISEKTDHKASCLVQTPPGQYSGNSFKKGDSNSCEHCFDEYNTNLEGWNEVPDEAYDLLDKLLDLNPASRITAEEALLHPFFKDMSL
Sequence of Cdc7/Dbf4 (Q9UBU7 whole entry partner): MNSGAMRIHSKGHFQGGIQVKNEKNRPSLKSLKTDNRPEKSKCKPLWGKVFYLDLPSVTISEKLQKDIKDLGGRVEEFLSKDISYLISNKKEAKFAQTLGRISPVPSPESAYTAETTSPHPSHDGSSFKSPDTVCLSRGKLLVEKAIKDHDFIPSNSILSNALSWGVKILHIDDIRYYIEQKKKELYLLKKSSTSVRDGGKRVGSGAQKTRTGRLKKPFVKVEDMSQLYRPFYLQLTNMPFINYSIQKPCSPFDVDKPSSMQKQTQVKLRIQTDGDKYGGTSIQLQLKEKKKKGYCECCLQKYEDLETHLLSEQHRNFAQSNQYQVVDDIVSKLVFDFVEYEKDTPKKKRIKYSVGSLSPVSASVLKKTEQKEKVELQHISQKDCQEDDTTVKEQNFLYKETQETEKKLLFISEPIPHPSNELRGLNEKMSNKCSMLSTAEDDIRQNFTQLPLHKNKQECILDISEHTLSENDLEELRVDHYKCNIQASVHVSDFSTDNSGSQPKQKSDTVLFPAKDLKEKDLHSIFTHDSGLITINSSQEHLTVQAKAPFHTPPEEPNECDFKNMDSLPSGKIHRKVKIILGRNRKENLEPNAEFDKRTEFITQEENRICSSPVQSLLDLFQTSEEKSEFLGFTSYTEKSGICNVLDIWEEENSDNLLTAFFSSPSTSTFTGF
Sequence of Cdc7/ASK (O00311 whole entry): as the sequence (O00311 whole entry) above
Sequence of Cdc7/ASK (Q9UBU7 whole entry partner): as the sequence (Q9UBU7 whole entry partner) above

SMILES | IC50 (Cdc7/ASK) | IC50 (Cdc7/Dbf4)
Cc1ncsc1-c1nc(N2CCN[C@@H](C(F)(F)F)C2)c(Cl)c(=O)[nH]1 [Compound 28, 5-chloro-2-(4-methylthiazol-5-yl)-4-[(3R)-3-(trifluoromethyl)piperazin-1-yl]-1H-pyrimidin-6-one] | 2.09 nM | –
O=c1[nH]c(-c2scnc2Cl)nc(C2CCOCC2)c1Cl [Compound 4, 5-chloro-2-(4-chlorothiazol-5-yl)-4-tetrahydropyran-4-yl-1H-pyrimidin-6-one] | 1.62 nM | –
Cc1ncsc1-c1nc(C2CCOCC2)c(Cl)c(=O)[nH]1 [Compound 6, 5-chloro-2-(4-methylthiazol-5-yl)-4-tetrahydropyran-4-yl-1H-pyrimidin-6-one] | 3.8 nM | 1.95 nM
O=c1[nH]c(-c2scnc2C(F)(F)F)nc(C2CCOCC2)c1Cl [Compound 14, 5-chloro-4-tetrahydropyran-4-yl-2-[4-(trifluoromethyl)thiazol-5-yl]-1H-pyrimidin-6-one] | 1.82 nM | –

The remaining lines, values ahead:

IC50 (Cdc7/ASK) | IC50 (Cdc7/Dbf4) | SMILES
– | 0.832 nM | C[C@@H]1COCCN1c1nc(-c2cn[nH]c2C(F)(F)F)[nH]c(=O)c1Cl [Compound 41, 5-chloro-4-[(3R)-3-methylmorpholin-4-yl]-2-[5-(trifluoromethyl)-1H-pyrazol-4-yl]-1H-pyrimidin-6-one]
– | 2.69 nM | C[C@@H]1CNCCN1c1nc(-c2cn[nH]c2C(F)(F)F)[nH]c(=O)c1Cl [Compound 44, 5-chloro-4-[(2R)-2-methylpiperazin-1-yl]-2-[5-(trifluoromethyl)-1H-pyrazol-4-yl]-1H-pyrimidin-6-one]
1.2 nM | 1.45 nM | O=c1[nH]c(-c2cn[nH]c2C(F)(F)F)nc(C2CCOCC2)c1Cl [Compound 17, 5-chloro-4-tetrahydropyran-4-yl-2-[5-(trifluoromethyl)-1H-pyrazol-4-yl]-1H-pyrimidin-6-one]
– | 1.82 nM | C[C@@H]1CNCCN1c1nc(-c2cn[nH]c2Cl)[nH]c(=O)c1Cl [Compound 43, 5-chloro-2-(5-chloro-1H-pyrazol-4-yl)-4-[(2R)-2-methylpiperazin-1-yl]-1H-pyrimidin-6-one]
